Experimental data from ChEMBL document CHEMBL5120971, “Network Pharmacology Research and Dual-omic Analyses Reveal the Molecular Mechanism of Natural Product Nodosin Inhibiting Muscle-Invasive Bladder Cancer in Vitro and in Vivo” (J Nat Prod, 2022).
Calls of active or inactive are those of the source. No cut-off for these calls is given here.

Experiments:
T-24 [1] = assay: Antitumor activity against human T24 cells xenografted in BALB/c mouse assessed as reduction in tumor growth at 2 mg/kg, ip administered at 2 days interval; format: functional, organism-based
T-24 [2] = assay: Effect on CLSPN expression in human T24 cells at 6 uM measured after 24 to 30 hrs by proteomic analysis; format: functional, cell-based; details: time 24-30 hrs
T-24 [3] = assay: Induction of autophagy in human T24 cells assessed as effect on SQSTM1 gene expression at 6 uM measured after 12 to 18 hrs by transcriptome analysis; format: functional, cell-based; details: time 12-18 hrs
T-24 [4] = assay: Induction of apoptosis in human T24 cells assessed as effect on SQSTM1 expression at 6 uM measured after 24 to 30 hrs by proteomic analysis; format: functional, cell-based; details: time 24-30 hrs
T-24 [5] = assay: Induction of autophagy in human T24 cells assessed as effect on PRKAA2 gene expression at 6 uM measured after 12 to 18 hrs by transcriptome analysis; format: functional, cell-based; details: time 12-18 hrs
T-24 [6] = assay: Induction of apoptosis in human T24 cells assessed as late apoptotic cells at 4 uM measured after 48 hrs by Annexin V-FITC/propidium iodide staining based flow cytometry (reference value: 0.74%); format: functional
T-24 [7] = assay: Induction of apoptosis in human T24 cells assessed as late apoptotic cells at 6 uM measured after 48 hrs by Annexin V-FITC/propidium iodide staining based flow cytometry (reference value: 0.74%); format: functional
T-24 [8] = assay: Effect on MDC1 expression in human T24 cells at 6 uM measured after 24 to 30 hrs by proteomic analysis; format: functional, cell-based; details: time 24-30 hrs
T-24 [9] = assay: Induction of apoptosis in human T24 cells assessed as early apoptotic cells at 6 uM measured after 48 hrs by Annexin V-FITC/propidium iodide staining based flow cytometry (reference value: 1.2%); format: functional
T-24 [10] = assay: Induction of morphological changes in human T24 cells assessed as cytoplasmic condensation at 4 to 12 uM measured after 48 hrs by microscopy; format: functional, cell-based; details: dose 4-12 µM
T-24 [11] = assay: Antimigratory activity against human T24 cells at 4 to 12 uM measured after 24 hrs by scratch test; format: functional, cell-based; details: dose 4-12 µM
T-24 [12] = assay: Inhibition of colony formation in human T24 cells at 1 to 12 uM measured after 12 days by crystal violet staining based microscopy; format: functional, cell-based; details: dose 1-12 µM, time 12.0 day
T-24 [13] = assay: Induction of apoptosis in human T24 cells assessed as effect on G0S2 expression at 6 uM measured after 24 to 30 hrs by proteomic analysis; format: functional, cell-based; details: time 24-30 hrs
[14] = Toxicity in human T24 cells xenografted BALB/c mouse assessed as effect on body weight at 2 mg/kg, ip administered at 2 days interval; format: organism-based, T-24; details: in vivo, 48 h
T-24 [15] = assay: Antiproliferative activity against human T24 cells assessed as reduction in Ki67 expression at 4 to 12 uM measured after 24 hrs by DAPI staining based immunofluorescence analysis; format: functional, cell-based; details: dose 4-12 µM
T-24 [16] = assay: Up regulation of SLC7A11 expression in human T24 cells at 6 uM measured after 24 to 30 hrs by proteomic analysis; format: functional, cell-based; details: time 24-30 hrs
T-24 [17] = assay: Induction of mitochondrial membrane disruption in human T24 cells at 4 to 8 uM measured after 48 hrs by transmission electron microscopy; format: cell-based; details: dose 4-8 µM
T-24 [18] = assay: Cytotoxicity against human T24 cells assessed as reduction in cell growth measured after 24 hrs by live/dead staining based fluorescence assay; format: functional; details: dose 4-10 µM, DDE = dose-dependent effect
T-24 [19] = assay: Induction of apoptosis in human T24 cells assessed as effect on RMDN3 expression at 6 uM measured after 24 to 30 hrs by proteomic analysis; format: functional, cell-based; details: time 24-30 hrs
T-24 [20] = assay: Induction of morphological changes in human T24 cells assessed as reduction in cell extension at 4 to 12 uM measured after 48 hrs by microscopy; format: functional, cell-based; details: dose 4-12 µM
T-24 [21] = assay: Induction of cell membrane disruption in human T24 cells at 4 to 8 uM measured after 48 hrs by transmission electron microscopy; format: cell-based; details: dose 4-8 µM
T-24 [22] = assay: Effect on NBN expression in human T24 cells at 6 uM measured after 24 to 30 hrs by proteomic analysis; format: functional, cell-based; details: time 24-30 hrs
T-24 [23] = assay: Induction of apoptosis in human T24 cells assessed as viable cells at 8 uM measured after 48 hrs by Annexin V-FITC/propidium iodide staining based flow cytometry (reference value: 97.49%); format: functional; details: read-out: Activity
T-24 [24] = assay: Effect on HLTF expression in human T24 cells at 6 uM measured after 24 to 30 hrs by proteomic analysis; format: functional, cell-based; details: time 24-30 hrs
T-24 [25] = assay: Induction of mitochondrial membrane potential loss in human T24 cells at 8 to 16 uM measured after 24 hrs by JC1 dye based fluorescence assay; format: functional, cell-based; details: dose 8-16 µM
T-24 [26] = assay: Induction of apoptosis in human T24 cells assessed as late apoptotic cells at 8 uM measured after 48 hrs by Annexin V-FITC/propidium iodide staining based flow cytometry (reference value: 0.74%); format: functional
T-24 [27] = assay: Up regulation of SLC7A11 gene expression in human T24 cells at 6 uM measured after 12 to 18 hrs by transcriptome analysis; format: functional, cell-based; details: time 12-18 hrs
T-24 [28] = assay: Induction of apoptosis in human T24 cells assessed as up regulation of SQSTM1 expression at 6 to 12 uM measured after 24 to 30 hrs by Western blot analysis; format: functional, cell-based; details: dose 6-12 µM, time 24-30 hrs
T-24 [29] = assay: Effect on E2F6 expression in human T24 cells at 6 uM measured after 24 to 30 hrs by proteomic analysis; format: functional, cell-based; details: time 24-30 hrs
T-24 [30] = assay: Effect on DDB1 expression in human T24 cells at 6 uM measured after 24 to 30 hrs by proteomic analysis; format: functional, cell-based; details: time 24-30 hrs
T-24 [31] = assay: Induction of apoptosis in human T24 cells assessed as necrotic cells at 8 uM measured after 48 hrs by Annexin V-FITC/propidium iodide staining based flow cytometry (reference value: 0.57%); format: functional
T-24 [32] = assay: Induction of apoptosis in human T24 cells assessed as up regulation of SQSTM1 gene expression at 6 uM measured after 12 to 18 hrs by transcriptome analysis; format: functional, cell-based; details: time 12-18 hrs
T-24 [33] = assay: Induction of apoptosis in human T24 cells assessed as effect on AIFM2 expression at 6 uM measured after 24 to 30 hrs by proteomic analysis; format: functional, cell-based; details: time 24-30 hrs
T-24 [34] = assay: Induction of apoptosis in human T24 cells assessed as effect on DHCR24 expression at 6 uM measured after 24 to 30 hrs by proteomic analysis; format: functional, cell-based; details: time 24-30 hrs
T-24 [35] = assay: Induction of apoptosis in human T24 cells assessed as up regulation of HMOX1 gene expression at 6 uM measured after 12 to 18 hrs by transcriptome analysis; format: functional, cell-based; details: time 12-18 hrs
T-24 [36] = assay: Induction of autophagy in human T24 cells assessed as effect on RAB24 gene expression at 6 uM measured after 12 to 18 hrs by transcriptome analysis; format: functional, cell-based; details: time 12-18 hrs
T-24 [37] = assay: Induction of apoptosis in human T24 cells assessed as viable cells at 4 uM measured after 48 hrs by Annexin V-FITC/propidium iodide staining based flow cytometry (reference value: 97.49%); format: functional; details: read-out: Activity
T-24 [38] = assay: Antitumor activity against human T24 cells xenografted in BALB/c mouse assessed as reduction in Ki67 expression at 2 mg/kg, ip administered at 2 days interval by immunohistochemical analysis; format: functional, organism-based
T-24 [39] = assay: Antimigratory activity against human T24 cells assessed as down regulation of NEXN expression at 6 uM measured after 24 to 30 hrs by proteomic analysis; format: functional, cell-based; details: time 24-30 hrs

## C=C1C(=O)[C@]23C[C@H]1C[C@@H](O)[C@H]2[C@@]12CO[C@@H](O)[C@@H]1C(C)(C)CC[C@@H]2OC3=O [NODOSIN]
T-24 [1]
  Activity: Active
T-24 [2]
  Activity: Active
T-24 [3]
  Activity: Active
T-24 [4]
  Activity: Active
T-24 [5]
  Activity: Active
T-24 [6]
  Activity: 1.34%
T-24 [7]
  Activity: 10.04%
T-24 [8]
  Activity: Active
T-24 [9]
  Activity: 10.74%
T-24 [10]
  Activity: Active
T-24 [11]
  Activity: Active
T-24 [12]
  inhibition: Active
T-24 [13]
  Activity: Active
[14]
  Activity: Non-Toxic
T-24 [15]
  Activity: Active
T-24 [16]
  Activity: Active
T-24 [17]
  Activity: Active
T-24 [18]
  Activity: Dde
T-24 [19]
  Activity: Active
T-24 [20]
  Activity: Active
T-24 [21]
  Activity: Active
T-24 [22]
  Activity: Active
T-24 [23]
  viability at 8 µM: 75.9%
T-24 [24]
  Activity: Active
T-24 [25]
  Activity: Active
T-24 [26]
  Activity: 13.17%
T-24 [27]
  Activity: Active
T-24 [28]
  Activity: Active
T-24 [29]
  Activity: Active
T-24 [30]
  Activity: Active
T-24 [31]
  Activity: 0.35%
T-24 [32]
  Activity: Active
T-24 [33]
  Activity: Active
T-24 [34]
  Activity: Active
T-24 [35]
  Activity: Active
T-24 [36]
  Activity: Active
T-24 [37]
  viability at 4 µM: 96.1%
T-24 [38]
  Activity: Active
T-24 [39]
  Activity: Active
